Experimental data published in PMC5740381 (Antimicrobial Agents and Chemotherapy, 2017).
Where two headings read alike, the source gives them in different places.

What was measured:
Assay type in all cases: cell-based, Hepatitis C virus
[1] = tested on: HCV subgenomic stable replicon GT4a; assay: Stable HCV replicon luciferase assay in Huh-7 cells; conditions: Hepatitis C virus, Huh-7, 0% human plasma, read-out: Mean EC50 ± SD
Text: (§1) . Five of these nine cell lines have been described previously, including those transfected with genotypes 1a H77, 1b Con1, 3a, 4a, and 6a ([28]). The other four cell lines were established by transfecting cells with a nonchimeric genotype 2a JFH-1 replicon (GenBank accession number AB047639), two genotype 2a JFH-1 chimeric replicons containing either a genotype 2b NS3 protease domain (N-terminal 251 amino acids) or a sequence encoding full-length NS3 through the first 39 amino acids of NS5B from genotype 5a (strain SA13), and one chimeric replicon with a genotype 1b Con1 backbone containing full-length NS3 and NS4A sequences from genotype 6e. The genotype 2b and 6e NS3 sequences were each synthetically constructed based on a consensus sequence derived from the alignment of 15 genotype 2b and 4 genotype 6e sequences, respectively. All replicon constructs were bicistronic subgenomic replicons similar to those described by Bartenschlager and coworkers, and the replicon cell lines were generated by introducing these constructs into cells of an Huh-7 human hepatoma-derived cell line ([50]). The inhibitory effect of the PIs on HCV replication in replicon cells was determined in Dulbecco's modified Eagle medium containing 5% fetal bovine serum with or without 40% human plasma (Bioreclamation, Westbury, NY). The EC50s were determined using nonlinear regression curve fitting as described previously ([33]).

[2] = tested on: HCV subgenomic stable replicon GT6a; assay: as above; conditions: Hepatitis C virus, Huh-7, 0% human plasma, read-out: Mean EC50 ± SD
Text: as §1

[3] = tested on: HCV subgenomic stable replicon GT3a; assay: microbe, parasite or virus in culture; conditions: Hepatitis C virus, Huh-7, 0% human plasma, read-out: Mean EC50 ± SD
Text: (§2) Five of these nine cell lines have been described previously, including those transfected with genotypes 1a H77, 1b Con1, 3a, 4a, and 6a ([28]). […] The genotype 2b and 6e NS3 sequences were each synthetically constructed based on a consensus sequence derived from the alignment of 15 genotype 2b and 4 genotype 6e sequences, respectively. All replicon constructs were bicistronic subgenomic replicons similar to those described by Bartenschlager and coworkers, and the replicon cell lines were generated by introducing these constructs into cells of an Huh-7 human hepatoma-derived cell line ([50]). The inhibitory effect of the PIs on HCV replication in replicon cells was determined in Dulbecco's modified Eagle medium containing 5% fetal bovine serum with or without 40% human plasma (Bioreclamation, Westbury, NY). The EC50s were determined using nonlinear regression curve fitting as described previously ([33]).

[4] = tested on: HCV subgenomic stable replicon GT6e; assay: microbe, parasite or virus in culture; conditions: Hepatitis C virus, Huh-7, 0% human plasma, read-out: Mean EC50 ± SD
Text: as §2

[5] = tested on: HCV genotype 1a replicon; assay: Transient replicon assay with engineered substitutions
Protocol: (§3) Mutagenesis was performed using a Change-IT multiple-mutation site-directed mutagenesis kit (USB, Cleveland, OH) or by cloning a synthesized DNA fragment encoding the amino acid substitution(s). The genotype 1a and 1b replicon shuttle vectors used for the introduction of the substitutions of interest in the NS3, NS5A, or NS5B gene for transient-transfection assays have been described previously ([28], [33]). The replicon shuttle vectors used for the introduction of substitutions in NS3 genes from other genotypes were similar to the stable replicon cell line constructs described above, except for the absence of the neo gene. After mutagenesis, the plasmids were linearized and RNA was transcribed and then used to transfect Huh-7 cells. Inhibition of HCV replication by the HCV inhibitors was measured by luciferase assay, as described above. Replication efficiency was calculated as a percentage of wild-type replication, as described previously ([28]).

[6] = tested on: HCV genotype 1b replicon; assay: as above
Protocol: as §3

[7] = tested on: HCV genotype 2a replicon; assay: as above
Protocol: as §3

[8] = tested on: HCV genotype 2b replicon; assay: as above; conditions: for EC50: Hepatitis C virus
Protocol: as §3

[9] = tested on: HCV genotype 3a replicon; assay: as above; conditions: for EC50: Hepatitis C virus
Protocol: as §3

[10] = tested on: HCV genotype 4a replicon; assay: as above; conditions: for EC50: Hepatitis C virus
Protocol: as §3

[11] = tested on: HCV genotype 4d replicon; assay: as above; conditions: for EC50: Hepatitis C virus, 96 h
Protocol: as §3

[12] = tested on: HCV genotype 5a replicon; assay: as above
Protocol: as §3

[13] = tested on: HCV genotype 6a replicon; assay: as above; conditions: for EC50: Hepatitis C virus
Protocol: as §3

SMILES: Cc1cnc(C(=O)N[C@H]2CCCCC/C=C\[C@@H]3C[C@@]3(C(=O)NS(=O)(=O)C3CC3)NC(=O)[C@@H]3C[C@@H](Oc4nc5ccccc5c5ccccc45)CN3C2=O)cn1 [Paritaprevir]
- EC50 [1]: 0.09 ± 0.03 nM
- EC50 [2]: 0.69 ± 0.09 nM
- EC50 [3]: 19 ± 5.2 nM
- EC50 [4]: 0.44 ± 0.17 nM
- Fold change ([5]; 1a NS3 A156T vs wild-type replicon): 17 fold
- Fold change ([5]; 1a NS3 D168A vs wild-type replicon): 50 fold
- Fold change ([5]; 1a NS3 D168E vs wild-type replicon): 14 fold
- Fold change ([5]; 1a NS3 D168V vs wild-type replicon): 96 fold
- Fold change ([5]; 1a NS3 F43L vs wild-type replicon): 20 fold
- Fold change ([5]; 1a NS3 Q80K vs wild-type replicon): 2.8 fold
- Fold change ([5]; 1a NS3 R155K vs wild-type replicon): 37 fold
- Fold change ([5]; 1a NS3 T54S vs wild-type replicon): 0.4 fold
- Fold change ([5]; 1a NS3 V36M vs wild-type replicon): 2.1 fold
- Fold change ([5]; 1a NS3 V55I vs wild-type replicon): 1.0 fold
- Fold change ([5]; 1a NS3 Y56H vs wild-type replicon): 2.9 fold
- Fold change ([6]; 1b NS3 A156T vs wild-type replicon): 7.4 fold
- Fold change ([6]; 1b NS3 A156V vs wild-type replicon): 21 fold
- Fold change ([6]; 1b NS3 D168A vs wild-type replicon): 27 fold
- Fold change ([6]; 1b NS3 D168E vs wild-type replicon): 4.4 fold
- Fold change ([6]; 1b NS3 D168V vs wild-type replicon): 159 fold
- Fold change ([6]; 1b NS3 R155K vs wild-type replicon): 40 fold
- Fold change ([6]; 1b NS3 T54A vs wild-type replicon): 0.8 fold
- Fold change ([6]; 1b NS3 V55A vs wild-type replicon): 0.6 fold
- Fold change ([6]; 1b NS3 V170A vs wild-type replicon): 0.8 fold
- Fold change ([7]; 2a NS3 A156T vs wild-type replicon): 1.7 fold
- Fold change ([7]; 2a NS3 A156V vs wild-type replicon): 2.2 fold
- Fold change ([7]; 2a NS3 D168A vs wild-type replicon): 18 fold
- Fold change ([7]; 2a NS3 D168E vs wild-type replicon): 5.3 fold
- Fold change ([7]; 2a NS3 D168V vs wild-type replicon): 13 fold
- Fold change ([8]; 2b NS3 A156T vs wild-type replicon): 3.0 fold
- Fold change ([8]; 2b NS3 A156V vs wild-type replicon): 5.0 fold
- Fold change ([8]; 2b NS3 D168A vs wild-type replicon): 11 fold
- Fold change ([8]; 2b NS3 D168E vs wild-type replicon): 2.2 fold
- Fold change ([8]; 2b NS3 D168V vs wild-type replicon): 9.4 fold
- EC50 ([8]; read-out: Mean EC50 ± SD, 2b NS3 A156T): 338 ± 86 nM
- EC50 ([8]; read-out: Mean EC50 ± SD, 2b NS3 A156V): 573 ± 204 nM
- EC50 ([8]; read-out: Mean EC50 ± SD, 2b NS3 D168A): 1310 nM
- EC50 ([8]; read-out: Mean EC50 ± SD, 2b NS3 D168E): 256 ± 58 nM
- EC50 ([8]; read-out: Mean EC50 ± SD, 2b NS3 D168V): 1070 nM
- EC50 ([8]; read-out: Mean EC50 ± SD, 2b wild type, transient transfection): 114 ± 24 nM
- Fold change ([9]; 3a NS3 A156G vs wild-type replicon): 57 fold
- Fold change ([9]; 3a NS3 Q168R vs wild-type replicon): 29 fold
- Fold change ([9]; 3a NS3 R155K vs wild-type replicon): 5.2 fold
- EC50 ([9]; read-out: Mean EC50 ± SD, 3a NS3 A156G): 1770 nM
- EC50 ([9]; read-out: Mean EC50 ± SD, 3a NS3 Q168R): 912 ± 221 nM
- EC50 ([9]; read-out: Mean EC50 ± SD, 3a NS3 R155K): 161 ± 20 nM
- EC50 ([9]; read-out: Mean EC50 ± SD, 3a wild type, transient transfection): 31 ± 7 nM
- Fold change ([10]; 4a NS3 A156T vs wild-type replicon): 40 fold
- Fold change ([10]; 4a NS3 A156V vs wild-type replicon): 155 fold
- Fold change ([10]; 4a NS3 D168H vs wild-type replicon): 252 fold
- Fold change ([10]; 4a NS3 D168V vs wild-type replicon): 323 fold
- Fold change ([10]; 4a NS3 R155C vs wild-type replicon): 59 fold
- EC50 ([10]; read-out: Mean EC50 ± SD, 4a NS3 A156T): 1.9 ± 0.25 nM
- EC50 ([10]; read-out: Mean EC50 ± SD, 4a NS3 A156V): 7.4 ± 1.6 nM
- EC50 ([10]; read-out: Mean EC50 ± SD, 4a NS3 D168H): 12 ± 3 nM
- EC50 ([10]; read-out: Mean EC50 ± SD, 4a NS3 D168V): 16 ± 1.9 nM
- EC50 ([10]; read-out: Mean EC50 ± SD, 4a NS3 R155C): 2.8 ± 0.25 nM
- EC50 ([10]; read-out: Mean EC50 ± SD, 4a wild type, transient transfection): 0.048 ± 0.01 nM
- Fold change ([11]; 4d NS3 D168V vs wild-type replicon): 312 fold
- EC50 ([11]; read-out: Mean EC50 ± SD, 4d NS3 D168V): 4.7 ± 0.91 nM
- EC50 ([11]; read-out: Mean EC50 ± SD, 4d wild type, transient transfection): 0.015 ± 0.001 nM
- Fold change ([12]; 5a NS3 D168E vs wild-type replicon): 23 fold
- Fold change ([12]; 5a NS3 D168H vs wild-type replicon): 558 fold
- Fold change ([13]; 6a NS3 D168A vs wild-type replicon): 1,347 fold
- Fold change ([13]; 6a NS3 D168H vs wild-type replicon): 2,490 fold
- Fold change ([13]; 6a NS3 D168V vs wild-type replicon): 3,336 fold
- EC50 ([13]; read-out: Mean EC50 ± SD, 6a NS3 D168A): 162 ± 80 nM
- EC50 ([13]; read-out: Mean EC50 ± SD, 6a NS3 D168H): 299 ± 87 nM
- EC50 ([13]; read-out: Mean EC50 ± SD, 6a NS3 D168V): 400 ± 139 nM
- EC50 ([13]; read-out: Mean EC50 ± SD, 6a wild type, transient transfection): 0.12 ± 0.04 nM
